Measurements from paper PMC5513037, “Examining the influence of specificity ligands and ATP-competitive ligands on the overall effectiveness of bivalent kinase inhibitors” (Proteome Science, 2017).
pIC50: −log10 of the molar value.

Legend:
Test in all cases: KAM-matrix competition in K562 lysate;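 on 0.001 uM KAM: median log10 fold change of treatment over DMSO control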;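 on 0.01 uM KAM: median log10 fold change of treatment over DMSO control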;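 on 0.1 uM KAM: median log10 fold change of treatment over DMSO control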;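 on 1 uM KAM: median log10 fold change of treatment over DMSO control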;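 on 10 uM KAM: median log10 fold change of treatment over DMSO control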
Type in all cases: binding
IRAK4 = biological target: T1, IRAK4 (Homo sapiens, UniProt Q9NWZ3)
T1 construct: endogenous in cells; host or cells: K562
T1 sequence (Q9NWZ3 1-460): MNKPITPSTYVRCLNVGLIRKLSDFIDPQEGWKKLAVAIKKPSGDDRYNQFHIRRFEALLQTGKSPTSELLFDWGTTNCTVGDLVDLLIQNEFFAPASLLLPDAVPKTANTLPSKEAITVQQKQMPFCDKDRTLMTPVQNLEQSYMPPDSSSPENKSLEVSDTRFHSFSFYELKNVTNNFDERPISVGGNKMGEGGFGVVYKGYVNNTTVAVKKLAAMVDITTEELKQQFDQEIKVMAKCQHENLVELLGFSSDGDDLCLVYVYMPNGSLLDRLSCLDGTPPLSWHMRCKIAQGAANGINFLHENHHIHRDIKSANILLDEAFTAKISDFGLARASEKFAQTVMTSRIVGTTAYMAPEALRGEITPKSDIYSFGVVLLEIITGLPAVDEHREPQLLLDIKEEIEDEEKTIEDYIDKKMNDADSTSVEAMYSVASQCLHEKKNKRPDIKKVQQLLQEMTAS
Description: (§1) Supplement 12953_2017_125_MOESM1_ESM.zip/MS_Supp Info.xlsx, sheet "KAM" | column: 10 uM KAM; 1 uM KAM; 0.1 uM KAM; 0.01 uM KAM; 0.001 uM KAM; RB50

MAPK1 = biological target: T2, MAPK1 (Homo sapiens, UniProt P28482)
T2 construct: endogenous in cells; host or cells: K562
Description: as §1

MAST3 = biological target: T3, MAST3 (Homo sapiens, UniProt O60307)
T3 construct: endogenous in cells; host or cells: K562 cells (lysate)
Description: as §1

SLK = biological target: T4, SLK (Homo sapiens, UniProt Q9H2G2)
T4 construct: endogenous in cells; host or cells: K562
Description: as §1

STK17A = biological target: T5, STK17A (Homo sapiens, UniProt Q9UEE5)
T5 construct: endogenous in cells; host or cells: K562 cell lysate
T5 sequence (Q9UEE5 1-414): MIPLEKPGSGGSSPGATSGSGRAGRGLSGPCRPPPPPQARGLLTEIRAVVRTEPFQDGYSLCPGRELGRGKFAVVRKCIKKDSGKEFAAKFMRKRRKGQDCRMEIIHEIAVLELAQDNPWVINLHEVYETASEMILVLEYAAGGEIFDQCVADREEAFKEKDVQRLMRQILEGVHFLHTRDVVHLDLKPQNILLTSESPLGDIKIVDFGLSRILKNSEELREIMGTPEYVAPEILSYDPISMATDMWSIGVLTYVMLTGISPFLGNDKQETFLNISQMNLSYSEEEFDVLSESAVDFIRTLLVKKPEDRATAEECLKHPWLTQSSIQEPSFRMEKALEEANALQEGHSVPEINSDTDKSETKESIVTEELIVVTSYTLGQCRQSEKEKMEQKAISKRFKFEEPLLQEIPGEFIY
Description: as §1

CDK16 = biological target: T6, CDK16 (Homo sapiens, UniProt Q00536)
T6 construct: endogenous in cells; host or cells: K562
Description: as §1

ULK2 = biological target: T7, ULK2 (Homo sapiens, UniProt Q8IYT8);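 on 0.001 uM KAM: median log10 fold change of treatment over DMSO control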;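 on 0.01 uM KAM: median log10 fold change of treatment over DMSO control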;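 on 0.1 uM KAM: median log10 fold change of treatment over DMSO control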;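 on 1 uM KAM: median log10 fold change of treatment over DMSO control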;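 on 10 uM KAM: median log10 fold change of treatment over DMSO control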
T7 construct: endogenous in cells; host or cells: K562
T7 sequence (Q8IYT8 1-1036): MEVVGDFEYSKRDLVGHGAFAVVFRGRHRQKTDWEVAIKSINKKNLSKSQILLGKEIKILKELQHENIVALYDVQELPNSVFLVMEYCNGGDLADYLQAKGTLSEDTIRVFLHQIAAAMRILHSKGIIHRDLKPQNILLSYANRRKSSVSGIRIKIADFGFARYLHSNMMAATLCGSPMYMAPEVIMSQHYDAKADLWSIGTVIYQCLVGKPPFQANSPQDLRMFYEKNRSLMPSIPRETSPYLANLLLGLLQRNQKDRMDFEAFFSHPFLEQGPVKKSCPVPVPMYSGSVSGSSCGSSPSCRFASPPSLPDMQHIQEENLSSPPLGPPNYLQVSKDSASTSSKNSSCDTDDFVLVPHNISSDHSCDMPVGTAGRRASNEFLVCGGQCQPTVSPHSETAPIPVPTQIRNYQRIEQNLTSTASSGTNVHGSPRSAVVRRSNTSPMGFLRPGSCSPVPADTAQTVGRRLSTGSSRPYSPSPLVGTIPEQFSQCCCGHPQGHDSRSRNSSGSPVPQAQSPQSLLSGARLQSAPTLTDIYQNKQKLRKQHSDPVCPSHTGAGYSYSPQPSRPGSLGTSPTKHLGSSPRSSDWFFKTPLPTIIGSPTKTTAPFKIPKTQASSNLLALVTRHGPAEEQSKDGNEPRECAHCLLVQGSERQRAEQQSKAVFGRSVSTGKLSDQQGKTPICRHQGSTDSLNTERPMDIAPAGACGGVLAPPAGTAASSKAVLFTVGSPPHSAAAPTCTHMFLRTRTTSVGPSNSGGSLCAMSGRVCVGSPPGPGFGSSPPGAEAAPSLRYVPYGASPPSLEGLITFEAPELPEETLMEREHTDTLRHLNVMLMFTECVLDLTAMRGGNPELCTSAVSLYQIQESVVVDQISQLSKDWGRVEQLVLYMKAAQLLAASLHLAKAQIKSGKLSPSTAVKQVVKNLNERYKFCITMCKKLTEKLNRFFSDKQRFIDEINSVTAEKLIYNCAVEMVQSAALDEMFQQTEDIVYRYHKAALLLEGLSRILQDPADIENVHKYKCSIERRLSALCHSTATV
Description: as §1

[1] = read-out: RB50 (the source's name)

T6 sequence (Q00536 whole entry): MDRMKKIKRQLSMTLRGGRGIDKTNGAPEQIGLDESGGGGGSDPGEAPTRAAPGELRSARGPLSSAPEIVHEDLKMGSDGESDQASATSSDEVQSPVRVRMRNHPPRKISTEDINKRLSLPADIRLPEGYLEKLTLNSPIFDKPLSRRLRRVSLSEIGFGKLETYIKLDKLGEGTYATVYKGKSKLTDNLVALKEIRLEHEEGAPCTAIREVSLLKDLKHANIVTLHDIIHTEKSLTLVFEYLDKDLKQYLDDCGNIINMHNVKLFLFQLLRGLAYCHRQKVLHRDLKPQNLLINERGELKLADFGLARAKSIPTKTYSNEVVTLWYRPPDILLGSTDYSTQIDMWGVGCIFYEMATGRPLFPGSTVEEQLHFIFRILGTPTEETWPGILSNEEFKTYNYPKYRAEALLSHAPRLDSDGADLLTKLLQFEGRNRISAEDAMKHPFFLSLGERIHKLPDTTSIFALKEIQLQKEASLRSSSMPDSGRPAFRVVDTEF
T4 sequence (Q9H2G2 whole entry): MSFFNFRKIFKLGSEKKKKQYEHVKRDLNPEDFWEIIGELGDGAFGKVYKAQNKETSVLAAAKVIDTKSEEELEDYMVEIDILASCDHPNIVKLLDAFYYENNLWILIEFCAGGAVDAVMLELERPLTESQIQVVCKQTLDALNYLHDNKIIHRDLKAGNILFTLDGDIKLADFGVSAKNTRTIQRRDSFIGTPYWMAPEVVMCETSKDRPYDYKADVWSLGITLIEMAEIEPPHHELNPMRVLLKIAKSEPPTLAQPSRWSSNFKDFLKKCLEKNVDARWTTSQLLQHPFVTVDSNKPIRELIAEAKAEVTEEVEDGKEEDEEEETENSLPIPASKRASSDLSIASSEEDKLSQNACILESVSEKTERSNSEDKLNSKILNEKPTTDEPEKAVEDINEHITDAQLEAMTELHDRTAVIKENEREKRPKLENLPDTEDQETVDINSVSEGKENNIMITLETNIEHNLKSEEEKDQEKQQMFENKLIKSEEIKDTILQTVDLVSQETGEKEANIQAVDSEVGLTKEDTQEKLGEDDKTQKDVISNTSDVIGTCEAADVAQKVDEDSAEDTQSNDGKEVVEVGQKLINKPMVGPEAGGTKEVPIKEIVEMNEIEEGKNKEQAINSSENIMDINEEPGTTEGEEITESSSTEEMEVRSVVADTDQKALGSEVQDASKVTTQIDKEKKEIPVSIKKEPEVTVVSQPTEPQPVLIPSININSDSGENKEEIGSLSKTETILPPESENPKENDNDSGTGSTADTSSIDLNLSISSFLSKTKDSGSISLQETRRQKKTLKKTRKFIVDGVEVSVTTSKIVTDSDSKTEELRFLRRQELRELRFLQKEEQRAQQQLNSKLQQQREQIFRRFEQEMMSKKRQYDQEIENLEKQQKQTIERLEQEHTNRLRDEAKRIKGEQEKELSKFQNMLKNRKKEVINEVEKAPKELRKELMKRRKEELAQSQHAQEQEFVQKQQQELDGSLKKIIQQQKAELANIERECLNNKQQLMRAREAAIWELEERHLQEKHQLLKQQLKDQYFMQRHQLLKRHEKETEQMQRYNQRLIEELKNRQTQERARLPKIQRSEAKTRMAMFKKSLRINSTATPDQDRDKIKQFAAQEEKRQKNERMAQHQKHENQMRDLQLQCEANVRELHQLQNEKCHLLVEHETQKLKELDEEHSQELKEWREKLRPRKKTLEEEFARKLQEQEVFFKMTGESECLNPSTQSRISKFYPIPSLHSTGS
T3 sequence (O60307 whole entry): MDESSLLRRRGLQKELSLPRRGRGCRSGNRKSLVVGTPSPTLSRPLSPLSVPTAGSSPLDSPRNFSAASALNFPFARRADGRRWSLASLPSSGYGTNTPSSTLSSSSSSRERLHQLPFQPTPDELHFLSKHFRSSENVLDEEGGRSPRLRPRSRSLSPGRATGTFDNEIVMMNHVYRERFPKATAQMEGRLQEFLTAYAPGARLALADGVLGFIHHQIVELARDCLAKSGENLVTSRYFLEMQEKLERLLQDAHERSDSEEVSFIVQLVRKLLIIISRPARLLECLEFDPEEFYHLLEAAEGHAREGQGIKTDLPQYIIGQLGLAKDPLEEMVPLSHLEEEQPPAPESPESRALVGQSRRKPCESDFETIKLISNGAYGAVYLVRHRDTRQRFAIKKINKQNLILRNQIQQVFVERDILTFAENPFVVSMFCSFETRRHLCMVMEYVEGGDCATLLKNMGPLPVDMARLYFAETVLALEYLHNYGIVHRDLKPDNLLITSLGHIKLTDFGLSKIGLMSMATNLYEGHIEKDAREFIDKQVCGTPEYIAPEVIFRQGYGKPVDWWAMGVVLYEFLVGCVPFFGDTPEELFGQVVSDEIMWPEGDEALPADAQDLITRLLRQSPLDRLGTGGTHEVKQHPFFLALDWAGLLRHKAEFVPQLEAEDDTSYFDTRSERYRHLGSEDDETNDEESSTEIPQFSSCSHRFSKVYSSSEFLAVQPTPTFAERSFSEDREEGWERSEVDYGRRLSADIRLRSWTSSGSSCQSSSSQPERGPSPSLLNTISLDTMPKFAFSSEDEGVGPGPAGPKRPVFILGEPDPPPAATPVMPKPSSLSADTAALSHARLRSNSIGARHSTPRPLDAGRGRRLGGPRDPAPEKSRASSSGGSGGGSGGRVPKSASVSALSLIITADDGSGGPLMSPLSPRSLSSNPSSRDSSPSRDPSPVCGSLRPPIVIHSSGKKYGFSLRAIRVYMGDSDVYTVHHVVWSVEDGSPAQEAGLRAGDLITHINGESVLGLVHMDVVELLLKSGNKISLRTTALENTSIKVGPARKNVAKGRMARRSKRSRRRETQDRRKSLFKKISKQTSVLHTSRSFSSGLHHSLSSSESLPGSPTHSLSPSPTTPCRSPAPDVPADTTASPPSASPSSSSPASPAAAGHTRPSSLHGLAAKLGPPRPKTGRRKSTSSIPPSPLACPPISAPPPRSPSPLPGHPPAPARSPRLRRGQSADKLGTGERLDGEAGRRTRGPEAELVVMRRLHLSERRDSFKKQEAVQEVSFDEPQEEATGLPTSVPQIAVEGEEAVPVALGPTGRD
T2 sequence (P28482 whole entry): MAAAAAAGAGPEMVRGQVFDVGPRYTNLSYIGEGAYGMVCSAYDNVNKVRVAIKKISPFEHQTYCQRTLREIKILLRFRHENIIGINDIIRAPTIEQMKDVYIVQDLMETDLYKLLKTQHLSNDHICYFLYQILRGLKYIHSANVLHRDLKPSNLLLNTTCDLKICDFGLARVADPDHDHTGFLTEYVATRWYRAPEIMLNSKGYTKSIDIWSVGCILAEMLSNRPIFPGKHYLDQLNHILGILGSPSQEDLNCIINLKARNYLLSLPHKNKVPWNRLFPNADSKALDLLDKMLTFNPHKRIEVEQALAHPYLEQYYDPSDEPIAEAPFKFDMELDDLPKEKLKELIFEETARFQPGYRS

N#CCc1ccc(Nc2nc(NCCCN)cc(Nc3cc(C4CC4)[nH]n3)n2)cc1 [KAM]
median Log10 fold change (IRAK4; 0.001 uM KAM): -0.01083 | median Log10 fold change (IRAK4; 0.01 uM KAM): -0.003774 | median Log10 fold change (IRAK4; 0.1 uM KAM): -0.1174 | median Log10 fold change (IRAK4; 1 uM KAM): -0.3495 | median Log10 fold change (IRAK4; 10 uM KAM): -0.4574 | pIC50 (IRAK4; [1]): 6.04 | median Log10 fold change (MAPK1; 0.001 uM KAM): -0.0422 | median Log10 fold change (MAPK1; 0.01 uM KAM): -0.03333 | median Log10 fold change (MAPK1; 0.1 uM KAM): -0.1132 | median Log10 fold change (MAPK1; 1 uM KAM): -0.2315 | median Log10 fold change (MAPK1; 10 uM KAM): -0.3482 | pIC50 (MAPK1; [1]): 5.50 | median Log10 fold change (MAST3; 0.001 uM KAM): -0.04433 | median Log10 fold change (MAST3; 0.01 uM KAM): -0.01527 | median Log10 fold change (MAST3; 0.1 uM KAM): -0.1684 | median Log10 fold change (MAST3; 1 uM KAM): -0.3441 | median Log10 fold change (MAST3; 10 uM KAM): -0.4667 | pIC50 (MAST3; [1]): 6.11 | median Log10 fold change (SLK; 0.001 uM KAM): 0.008335 | median Log10 fold change (SLK; 0.01 uM KAM): -0.005793 | median Log10 fold change (SLK; 0.1 uM KAM): -0.3118 | median Log10 fold change (SLK; 1 uM KAM): -0.5551 | median Log10 fold change (SLK; 10 uM KAM): -0.6917 | pIC50 (SLK; [1]): 6.86 | median Log10 fold change (STK17A; 0.001 uM KAM): -0.02395 | median Log10 fold change (STK17A; 0.01 uM KAM): -0.004192 | median Log10 fold change (STK17A; 0.1 uM KAM): -0.2117 | median Log10 fold change (STK17A; 1 uM KAM): -0.3947 | median Log10 fold change (STK17A; 10 uM KAM): -0.5099 | pIC50 (STK17A; [1]): 6.34 | median Log10 fold change (CDK16; 0.001 uM KAM): 0.002002 | median Log10 fold change (CDK16; 0.01 uM KAM): 0.005918 | median Log10 fold change (CDK16; 0.1 uM KAM): -0.06683 | median Log10 fold change (CDK16; 1 uM KAM): -0.3041 | median Log10 fold change (CDK16; 10 uM KAM): -0.3301 | pIC50 (CDK16; [1]): 5.70 | pIC50 (ULK2; KAM 0.001-10 uM, read-out: RB50 (the source's name)): < 5.00 | 0.001 uM KAM (ULK2; relative to 0 uM KAM = 0): -0.004094 | 0.01 uM KAM (ULK2; relative to 0 uM KAM = 0): -0.0009308 | 0.1 uM KAM (ULK2; relative to 0 uM KAM = 0): 0.03838 | 1 uM KAM (ULK2; relative to 0 uM KAM = 0): 0.1564 | 10 uM KAM (ULK2; relative to 0 uM KAM = 0): 0.04645
